Data published in a compilation of properties of binary mixtures (doi:10.1021/jp5065243).

Assay: xn = mol fraction of the nth substance listed
Conditions: 101 kPa

CC(O)CO (configuration not stated) + C[N+](C)(C)CCO.O=S(=O)([N-]S(=O)(=O)C(F)(F)F)C(F)(F)F
x1 = 1
Conditions | viscosity [mPa·s]
313.15 K | 19.1
318.15 K | 15.17
323.15 K | 12.2
328.15 K | 9.85
333.15 K | 8
338.15 K | 6.4
343.15 K | 5.27
348.15 K | 4.5
353.15 K | 3.78

CCCC[N+](C)(C)C.O=S(=O)([N-]S(=O)(=O)C(F)(F)F)C(F)(F)F + CC(O)C(C)O
x2 = 0
Conditions | viscosity [mPa·s]
323.15 K | 35.6
333.15 K | 25.7
338.15 K | 22.1
343.15 K | 19.2

CCC(O)CO (configuration not stated) + CCCC[N+](C)(C)C.O=S(=O)([N-]S(=O)(=O)C(F)(F)F)C(F)(F)F
x1 = 1
Conditions | viscosity [mPa·s]
323.15 K | 12.85
333.15 K | 8.33
338.15 K | 6.83
343.15 K | 5.65
348.15 K | 4.75
353.15 K | 4.03

CCCC[N+](C)(C)C.O=S(=O)([N-]S(=O)(=O)C(F)(F)F)C(F)(F)F + CC(O)CO
viscosity [mPa·s]
Conditions | x2 = 0 | x2 = 0.132 | x2 = 0.1909 | x2 = 0.3054 | x2 = 0.5274 | x2 = 0.7262 | x2 = 0.8149 | x2 = 0.8843
323.15 K | – | 25.2 | 22.8 | 19.6 | 15.85 | 14.66 | 12.95 | –
328.15 K | 30 | 21.4 | – | 16.72 | 13.36 | 12.33 | 10.63 | 9.67
333.15 K | 25.7 | 18.4 | 16.53 | – | 11.41 | 10.46 | 8.85 | 8.04
338.15 K | – | 15.98 | 14.01 | – | – | 8.91 | – | 6.68
343.15 K | – | 13.99 | 12.36 | 10.89 | 8.6 | 7.59 | 6.35 | 5.62
348.15 K | – | 12.65 | – | 9.89 | – | 6.68 | – | 4.96
353.15 K | 15.63 | 11.91 | 10.8 | 9.3 | 7.51 | 6.1 | – | 4.62

CC(O)CO (configuration not stated) + CCCC[N+](C)(C)C.O=S(=O)([N-]S(=O)(=O)C(F)(F)F)C(F)(F)F
x1 = 1
Conditions | viscosity [mPa·s]
323.15 K | 12.2
328.15 K | 9.85
333.15 K | 8
338.15 K | 6.41
343.15 K | 5.27
348.15 K | 4.54

C[N+](C)(C)CCO.O=S(=O)([N-]S(=O)(=O)C(F)(F)F)C(F)(F)F + OCCCCCO
viscosity [mPa·s]
Conditions | x2 = 0 | x2 = 0.1351 | x2 = 0.2149 | x2 = 0.4145 | x2 = 0.5087 | x2 = 0.6847 | x2 = 0.7858 | x2 = 0.9071
313.15 K | 56.4 | 49.5 | 45.2 | 38.4 | 37 | 36.8 | 37.8 | 40.8
318.15 K | 46.8 | 40.8 | – | 31.4 | 30.2 | 29.7 | 30.3 | 32.9
323.15 K | – | 34.2 | – | 26.1 | 24.9 | 24.3 | 24.7 | 26.8
328.15 K | 33.4 | 28.9 | – | 22 | 20.9 | 20.2 | 20.2 | 22
333.15 K | 28.6 | 24.7 | – | 18.7 | 17.7 | 17 | 16.86 | 18.3
338.15 K | 24.6 | 21.3 | 19.5 | – | 15.17 | 14.44 | 14.12 | 15.4
343.15 K | 21.6 | 18.6 | 17 | 13.98 | 13.08 | – | 11.92 | 12.99

OCCCCCO + C[N+](C)(C)CCO.O=S(=O)([N-]S(=O)(=O)C(F)(F)F)C(F)(F)F
x1 = 1
Conditions | viscosity [mPa·s]
313.15 K | 45.6
318.15 K | 36.9
323.15 K | 29.8
328.15 K | 24.5
338.15 K | 16.84
343.15 K | 14.44

C[N+](C)(C)CCO.O=S(=O)([N-]S(=O)(=O)C(F)(F)F)C(F)(F)F + CC(O)CO
viscosity [mPa·s]
Conditions | 313.15 K | 318.15 K | 323.15 K | 328.15 K | 333.15 K | 338.15 K | 343.15 K | 348.15 K | 353.15 K
x2 = 0 | – | 46.8 | 39.3 | 33.4 | – | – | 21.6 | – | 16.9
x2 = 0.2189 | 37.3 | 31.1 | 26.2 | 22.3 | 19.2 | 16.54 | – | 12.98 | 11.55
x2 = 0.3834 | 31.1 | 26.2 | 21.7 | 18.6 | 15.87 | 13.73 | – | 10.65 | 9.42
x2 = 0.4786 | – | – | 19.8 | 16.76 | 14.37 | 12.63 | 10.88 | 9.6 | 8.48
x2 = 0.5867 | 26.7 | 21.9 | 18.2 | – | 13.15 | 11.34 | 9.88 | 8.68 | 7.67
x2 = 0.7668 | 22 | 17.9 | 14.79 | 12.4 | 10.52 | 9.01 | 7.78 | 6.77 | 5.91
x2 = 0.8744 | 19.7 | 15.95 | 13.08 | 10.84 | 9.12 | 7.72 | – | 5.69 | 4.91

OCCCO + C[N+](C)(C)CCO.O=S(=O)([N-]S(=O)(=O)C(F)(F)F)C(F)(F)F
x1 = 1
Conditions | viscosity [mPa·s]
313.15 K | 20.3
318.15 K | 16.88
323.15 K | 14.16
328.15 K | 12.01
333.15 K | 10.24
343.15 K | 7.47
348.15 K | 6.62
353.15 K | 5.8

CCCC[N+](C)(C)C.O=S(=O)([N-]S(=O)(=O)C(F)(F)F)C(F)(F)F + CCC(O)CO
viscosity [mPa·s]
Conditions | 323.15 K | 328.15 K | 333.15 K | 338.15 K | 343.15 K | 348.15 K | 353.15 K
x2 = 0 | 35.6 | – | 25.7 | 22.1 | 19.2 | 16.81 | 15.63
x2 = 0.2291 | 22.5 | 19.1 | 16.35 | – | – | 10.93 | 10.09
x2 = 0.3543 | 19.1 | 16.13 | 13.78 | – | 10.4 | 9.13 | 8.39
x2 = 0.5116 | 16.9 | 14.18 | 12.01 | 10.29 | 8.9 | 7.77 | –
x2 = 0.6289 | – | 13.27 | 11.03 | 9.35 | 8.1 | – | 6.33
x2 = 0.8622 | 13.55 | 10.93 | 8.96 | 7.44 | 6.26 | 5.32 | –
x2 = 0.9031 | 13.23 | 10.7 | 8.68 | 7.12 | 5.98 | 5.19 | 4.58

CC(O)C(C)O (configuration not stated) + CCCC[N+](C)(C)C.O=S(=O)([N-]S(=O)(=O)C(F)(F)F)C(F)(F)F
viscosity [mPa·s]
Conditions | x1 = 0.0879 | x1 = 0.3137 | x1 = 0.4515 | x1 = 0.557 | x1 = 0.6216 | x1 = 0.8142 | x1 = 1
323.15 K | 28.8 | 20.9 | 18.2 | – | – | 15.29 | 17
328.15 K | 24.4 | 17.7 | 15.32 | – | 13.26 | 12.34 | 13.13
333.15 K | 20.9 | – | – | – | 11.09 | 10.19 | 10.34
338.15 K | 18.1 | 13.22 | 11.32 | 10 | 9.39 | 8.53 | 8.27
343.15 K | 15.83 | 11.16 | 9.89 | 8.68 | 8.03 | 7.33 | –

C[N+](C)(C)CCO.O=S(=O)([N-]S(=O)(=O)C(F)(F)F)C(F)(F)F + OCCCO
viscosity [mPa·s]
Conditions | 313.15 K | 318.15 K | 323.15 K | 328.15 K | 333.15 K | 338.15 K | 343.15 K | 348.15 K | 353.15 K
x2 = 0 | 56.4 | – | 39.3 | – | 28.6 | 24.6 | 21.6 | – | 16.9
x2 = 0.1272 | – | 39.1 | 32.8 | 27.9 | – | 20.8 | 18.1 | 16 | 14.19
x2 = 0.2297 | 39.8 | 33.1 | 27.9 | 23.8 | – | – | – | 13.8 | 12.29
x2 = 0.4106 | – | 25.1 | 21.2 | 18.1 | 15.6 | 13.62 | 11.96 | 10.58 | 9.49
x2 = 0.5712 | – | 20.8 | 17.5 | 14.95 | 12.87 | 11.18 | 9.79 | – | 7.65
x2 = 0.6946 | 22.2 | 18.4 | 15.47 | 13.14 | – | – | 8.51 | 7.46 | 6.58
x2 = 0.8367 | 20.4 | 16.91 | – | – | 10.27 | 8.86 | 7.74 | 6.78 | –
x2 = 0.9474 | 19.5 | 16.22 | 13.62 | 11.54 | 9.86 | – | 7.36 | 6.39 | 5.57
